Assay results taken from patent US20140050743A1, “BINDING PROTEINS TO INHIBITORS OF COAGULATION FACTORS” (BAYER INTELLECTUAL PROPERTY GMBH, priority 2011, published 2014).

Tests used:
[1] = system: rivaroxaban (prothrombin time); experiment: Reversal of rivaroxaban's effect on prothrombin time (PT) in vitro, rat plasma; type: biochemical
Method: (§1) Citrated blood (0.11 M Na-citrate/blood, 1:9 v/v) was obtained from human donors by venipuncture or from anesthetized Wistar rats (Charles River) by aortic cannulation and centrifuged at 4000 g for 15 minutes for separation of platelet-poor plasma. […] Antidote was added to the Plasma-rivaroxaban mixture and incubated for another 10 minutes at room temperature. The PT assay was run using Recombiplastin (Instrumentation Laboratory) as tissue factor source on an AMAX 200 automated coagulometer (Trinity Biotech) according to manufacturer's instructions. The composition of the final assay volume is ⅓ plasma and ⅔ PT reagent. […] Data are given as means±sem from 5 experiments and represent final assay concentrations (Table 8 and FIGS. 7 and 8).

[2] = system: rivaroxaban (prothrombin time); experiment: Reversal of rivaroxaban's effect on prothrombin time (PT) in vitro, human plasma; type: biochemical
Method: as §1

[3] = ELISA-based activity assay of antibody variants with a competition step (300 nM rivaroxaban); type: binding; set-up: key: ++: Variants with an average ratio above wt plus 2×SD (standard deviation of the ratio) were considered as improved; −: variants with a ratio below wt minus 2×SD were considered as reduced in their binding affinity; +/−: All variants with a performance in between both thresholds; −−: Variants with average fluorescence counts below the negative control (non-expressing cells) plus 3×SD were considered as non-binding; conditions: Table 11: single and double amino acid substitutions within M18-G08, variant to wt ratio, 1-3 independent experiments
Method: To determine the activity of the mutated antibody variants on compound from Example 1K an equilibrium or dissociation limited ELISA assay format was used. Briefly, MTP plates (Nunc Maxisorp black, 460518) were coated with 4 μg/ml streptavidin (Calbiochem, 189730) diluted in coating buffer (Candor Bioscience GmbH, 121500) and incubated over night at 4° C. After washing with PBST, plates were blocked with 100% Smart Block (Candor Bioscience GmbH, 113500) in PBST for 1 h at room temperature and the washing step was repeated. […] After washing 10 μM Amplex Red (Invitrogen, A12222) were added and incubated for 10 to 30 min at room temperature followed by measurement of the fluorescence signal.
Provided in table 11 are several examples of single and/or double amino acid substitutions introduced into the heavy and/or the light chain of M18-G08 (wt). Performance of the variants was analyzed in quadruples in the ELISA with a competition step and the FXa deinhibition assay (FXa DIA). In the ELISA, averages were calculated and overall performance of variants was evaluated by comparing the variant to wt ratio from 1-3 independent experiments. […] Variants with average fluorescence counts below the negative control (non-expressing cells) plus 3×SD were considered as non-binding and marked with “−−”. […] Variants not analyzed are marked with “nd” (not determined). […]

[4] = system: rivaroxaban (FXa activity); experiment: FXa de-inhibition assay (FXa DIA) of Fab variants; type: biochemical; set-up: key: ++: Variants with an average ratio above wt plus 2×SD were considered as improved; −−: variants with a ratio below wt minus 2×SD were considered as either reduced in their binding affinity or non-binding; +/−: All variants with a performance in between both thresholds; conditions: Table 11: single and double amino acid substitutions within M18-G08; FXa deinhibition assay; variant/wt ratio, 2-3 independent experiments
Method: Then, 7 μl of 28 nM FXa (Haematologic Technologies Inc., HCXA-0060) diluted in assay buffer (20 mM Tris, Merck 1.08382.2500; 100 mM NaCl, Merck 1.06404.5000; 2.5 mM CaCl2*2H2O, Merck 1.02382.1000; 0.1% bovine serum albumin, Sigma A4503; 0.1% PEG 8000, Sigma P2139) were added and enzyme activity was recorded over time by measuring the fluorescence signal at 440 nm using a micro plate reader e.g. Tecan Infinite F500. The fluorescence signal was integrated over time and ratios of variant to wild-type were compared.
Provided in Table 9 are several examples of single and/or double amino acid substitutions introduced into the heavy and/or the light chain of M14-G07 (wt). Performance of the variants was analyzed in quadruples in the ELISA without a competition step and the FXa deinhibition assay (FXa DIA). In the ELISA, averages were calculated and normalized to the respective average expression level. Overall performance of variants was evaluated by comparing the variant to wt ratio from 2-3 independent experiments. […] Variants with average fluorescence counts below the negative control (non-expressing cells) plus 3×SD were considered as non-binding and marked with “−−” with none of the variants fulfilling this criteria. In the FXa deinhibition assay averages were calculated and overall performance of variants was evaluated by comparing the variant to wt ratio from 2-3 independent experiments. […]

Row | Molecule | PT prolongation by rivaroxaban (x control) ([1]; rivaroxaban 0.4 μM) | PT prolongation by rivaroxaban (x control) ([1]; rivaroxaban 0.8 μM) | PT prolongation by rivaroxaban (x control) ([2]; rivaroxaban 0.17 μM) | PT prolongation by rivaroxaban (x control) ([2]; rivaroxaban 0.33 μM) | ELISA [3] | FXa-DIA [4]
1 | O=C(NC[C@H]1CN(c2ccc(N3CCOCC3=O)cc2)C(=O)O1)c1ccc(Cl)s1 [Rivaroxaban, 5-Chloro-N-({(5S)-2-oxo-3-[4-(3-oxo-4-morpholinyl)phenyl]-1,3-oxazolidin-5-yl}-methyl)-2-thiophenecarboxamide, reference compound] | 1.9 x control | 2.6 x control | 1.8 x control | 2.2 x control |  | 
2 | HC_N31S (antibody, V domains shown) VH: EVQLLESGGGLVQPGGSLRLSCAASGFTFSSAWMSWVRQAPGKGLEWVSYISSSGSTIYYADSVKGRFTISRDNSKNTLYLQMNSLRAEDTAVYYCAREGLWAFDYWGQGTLVTVTS VL: QSVLTQPPSASGTPGQRVTISCTGSSSNIGAGYVVHWYQQLPGTAPKLLIYDNNKRPSGVPDRFSGSKSGTSASLAISGLRSEDEADYYCAAWDDRLNGPVFGGGTKLTVLGQ |  |  |  |  | +/− | 
3 | HC_A32Y (antibody, V domains shown) VH: EVQLLESGGGLVQPGGSLRLSCAASGFTFSNYWMSWVRQAPGKGLEWVSYISSSGSTIYYADSVKGRFTISRDNSKNTLYLQMNSLRAEDTAVYYCAREGLWAFDYWGQGTLVTVTS VL: QSVLTQPPSASGTPGQRVTISCTGSSSNIGAGYVVHWYQQLPGTAPKLLIYDNNKRPSGVPDRFSGSKSGTSASLAISGLRSEDEADYYCAAWDDRLNGPVFGGGTKLTVLGQ |  |  |  |  | ++ | ++
